This is an account of results in patent US4585773A, “Isoindolinyl-alkyl-piperazines” (Bristol-Myers Company, priority 1984, dated 1986).

The test system of assay [1] is DOCA-salt Hypertensive Rat. In words: antihypertensive activity, DOCA-salt Hypertensive Rat (Table II). The assay is classed as in vivo. The settings on record: DOCA. On the procedure: DOCA-salt Hypertensive Rat
Male rats initially weighing 80-100 g, are made hypertensive by surgically implanting two 50 mg pellets of deoxycorticosterone acetate (DOCA) under the skin of the abdomen of each rat and providing 1% saline ad libitum. After three weeks, the 1% saline is replaced with distilled water. One week later, animals are anesthetized with methoxyflurane and a catheter advanced into the aorta via the left common corotid artery to record mean arterial blood pressure (MABP) and heart rate. The heparin-filled catheter is passed beneath the skin and exteriorized behind the head. Two days later, MABP and heart rate are determined before and four hours after oral administration of vehicle (0.25% Methocel in 0.9% saline) or test compound suspended in vehicle at a dose volume equivalent to 5 ml/kg.
Testing was carried out on the compounds of Examples I-XII for antihypertensive activity. In the case of all the compounds testing was carried out on the Spontaneously Hypertensive rat as described hereinbefore. In the case of the compounds of Examples I-IV testing was also carried out on the DOCA-salt Hypertensive Rat. The compound of Example I was tested as its monochloride 2-propanolate hydrate, i.e. as C22 H27 ClN4 O4 S.HCl.0.2(CH3)2 CHOH.0.15H2 O in Tests 1-5; and as the 3/4 mole hydrochloride, i.e. C22 H27 ClN4 O4 S: 3/4 HCl in Tests 3a, 4a, 5a-5d. Test results are set forth in Table II below wherein SHR stands for Spontaneously Hypertensive rat, DOCA stands for DOCA-salt Hypertensive Rat, ΔBP stands for the change in systolic blood pressure in mm Hg, ΔHR stands for the change in mean heart rate in beats per minute and the times set forth are the times after dosing. A peak change in ΔBP of more than 20 is considered as indicating activity.

Assay [2] in a line: conscious rat diuretic screen of Lipschitz (Table I). The format is in vivo, rat (female Sprague Dawley; male Okamoto-Aoki). The settings on record: female Sprague Dawley rats; for response vs control in vivo at 3 mg/kg / response vs control in vivo at 30 mg/kg: Rattus norvegicus, po. On the procedure: With respect to diuretic utility there can be mentioned the conscious rat diuretic screen of Lipschitz, et al. (J. Pharmacol. Exp. Therap. 79, 97-110 (1943)). In this test, dose response assays of diuretic, natruiretic and kaliuretic activity are determined by oral administration of the test substance. The compounds synthesized in Examples I-XI were tested for diuretic […]. The compound of Example I was tested as its monohydrochloride 2-propanolate hydrate, i.e. as C22 […] ClN4 O4 S.HCl. 0.2(CH3)2 CHOH.0.15H2 O. Testing was carried out by the diuretic screen of Lipschitz, et al. described previously. In Table I below Volume Ratio is the ratio of total volume excreted for the test comuound compared to the total volume excreted for the control, Na^+ Ratio is the Na^+ excreted for the test compound compared to the Na^+ excreted for the control, K^+ Ratio is the K^+ excreted for the test compound compared to the K^+ excreted for the control. Female Sprague Dawley rats were used in Test Nos. 1, 2, 6, 7, 11-29. Male Okamoto-Aoki rats were used in Test Nos. 3-5 and 8-10 and testing for antihypertensive activity was carried out simultaneously on the Test Nos. 3-5 rats. In some instances, compounds were retested at the same dose level.

Assay [3] concerns the target α1. In words: in vitro α1 binding, [3H]WB-4101 (Table IV). The settings on record: [3H]WB-4101, brain tissue, 50 mM Hepes.KOH, pH 7.4; read-out: α1 Binding IC50. On the procedure:
(§1) In this Example the compounds of Examples I-XI were tested in vitro for α1 and α2 binding. The compound of Example I was tested as its monochloride 2-propanolate hydrate, i.e. as C22 […] CLN4 O4 S .HCl.0.2(CH3)2 CHOH 0.15H2 O. In the testing specific brain tissues were prepared as sources of binding sites. Aliquots of the washed members are incubated with a low concentration of […]. After incubation at suitable temperature, the reaction mixture is treated to separate the membrane-bound radioligand Radioactivity is measured. Linear regression analysis of the probit value for the percent of binding occurring in the presence of varying concentrations of the compound of interest plotted against the concentration of the compound yields concentrations which inhibit 50% specific binding, the IC50. The assay buffer is 50 mM Hepes.KOH, pH 7.4. The ligand is [^3 H]WB-4101 from New England Nuclear for α1 and [^3 H]Clonidine from New England Nuclear for α2. The results are considered against phentolamine methanesulfonate (Reference) which is considered a good α-binder.

Assay [4] relates to Spontaneously Hypertensive rat. Put plainly: antihypertensive activity, Spontaneously Hypertensive Rat (Table II). The format is in vivo. The settings on record: for ΔBP 2 hours / ΔBP 4 hours / ΔHR 2 hours / ΔHR 4 hours: SHR, 30 mg/kg oral; for antihypertensive effect (in words): conclusion from Table II (SHR, and DOCA for Examples I-IV). On the procedure: Spontaneously Hypertensive Rat Male rats weighing 300-400 g, previously conditioned to the procedure, are prewarmed in a heating chamber (30° C.) for 10-20 min. and subsequently restrained in a wire holder at that temperature. Systolic blood pressure and heart rate are measured by the tailcuff technique using a pneumatic pulse transducer and a biotachometer before, and 2, 4, and 24 hours after oral administration of vehicle (0.25% Methocel in water) or test compounds suspended in vehicle at a dose volume equivalent to 5 ml/kg. Blood pressure and heart rate data are reported as changes from zero-hour measurements with vehicle control groups run periodically to confirm that the vehicle has no effect. Testing was carried out on the compounds of Examples I-XII for antihypertensive activity. In the case of all the compounds testing was carried out on the Spontaneously Hypertensive rat as described hereinbefore. In the case of the compounds of Examples I-IV testing was also carried out on the DOCA-salt Hypertensive Rat. The compound of Example I was tested as its monochloride 2-propanolate hydrate, i.e. as C22 […] ClN4 O4 S.HCl.0.2(CH3)2 CHOH.0.15H2 O in Tests 1-5; and as the 3/4 mole hydrochloride, i.e. C22 […] ClN4 O4 S: 3/4 HCl in Tests 3a, 4a, 5a-5d. Test results are set forth in Table II below wherein SHR stands for Spontaneously Hypertensive rat, DOCA stands for DOCA-salt Hypertensive Rat, ΔBP stands for the change in systolic blood pressure in mm Hg, ΔHR stands for the change in mean heart rate in beats per minute and the times set forth are the times after dosing. A peak change in ΔBP of more than 20 is considered as indicating activity.

In assay [5] the target is α2. In words: in vitro α2 binding, [3H]Clonidine (Table IV). The settings on record: [3H]Clonidine, brain tissue, 50 mM Hepes.KOH, pH 7.4; read-out: α2 Binding IC50. On the procedure: as §1
Assay [6] concerns α blocking activity (phenylephrine). Put plainly: in vivo α blocking activity, phenylephrine (PE) as α-agonist (Table III). More on the design: species or system rat; ED50: unit not given beside the values. On the procedure: In this example the compounds of Examples I (modified), II, III, V, VI, VII, VIII, IX and XI were tested in rats for in vivo α blocking activity according to methodology described at page 312 of Deitchman, et al., Journal of Pharmacological Methods, 3, 311-321 (1980). In this test phenylephrine (PE below) or norepinephrine (NE below) was administered as an α-agonist to the rats before and after dosing with the test drug and the average interpolated dose or PE/NE effecting a 50 mm Hg increase in mean arterial blood pressure was determined. Table III below records the results. In such Table, ED50 stands for such average interpolated dose and Average Dose Shift stands for the average ratio of ED50 after drug administration to ED50 before drug administration. The compound of Example I was tested as its monochloride 2-propanolate hydrate, i.e. as C22 H27 ClN4 O4 S.HCl 0.2(CH3)2 CHOH.0.15H2 O in Tests 1-5 and as the 3/4 mole hydrochloride, i.e. C22 H27 ClN 4 O4 S.3/4HCL in Tests 2a and 3a. The route was intravenous except in the case of the runs of Test Nos. 2a, 3, 3a, 26-29 the route was oral.

[7] abbreviates: 3 mg/kg oral, read-out: K+ Ratio.
[8] abbreviates: 3 mg/kg oral, read-out: Na+ Ratio.
Setting [9] is: 3 mg/kg oral, read-out: Volume Ratio.
Setting [10] is: 30 mg/kg oral, read-out: K+ Ratio.
Where [11] appears, read: 30 mg/kg oral, read-out: Na+ Ratio.
The mark [12] stands for this setting: ED50 after/before drug, PE, dose 10, intravenous.
Where [13] appears, read: 30 mg/kg oral, read-out: Volume Ratio.

Each structure is given as a SMILES string. Counter-ions that a name gives are not always drawn. Like-named read-outs stand apart in the source and are kept apart here.

As usually defined, the IC50 is the concentration needed to halve the response being measured. For `Cc1ccccc1N1CCN(CCCN2Cc3cc(Cl)c(S(N)(=O)=O)cc3C2=O)CC1` [Example IV, 6-Chloro-2,3-dihydro-2-[3-[4-(2-methylphenyl)-1-piperazinyl]propyl]-3-oxo-1H-isoindole-5-sulfonamide], the “ΔBP 4 hours” value in assay [1] (0.3 mg/kg oral) was -8 ± 3 mm Hg; in assay [1] (3 mg/kg oral), -31 ± 7 mm Hg; in assay [1] (30 mg/kg oral), -79 ± 4 mm Hg; in assay [4], -53 ± 7 mm Hg. The “ΔHR 4 hours” value is 13 ± 21 beats per minute in assay [1] (0.3 mg/kg oral), 22 ± 9 beats per minute in assay [1] (3 mg/kg oral), 18 ± 13 beats per minute in assay [1] (30 mg/kg oral) and -22 ± 22 beats per minute in assay [4]. For the same compound, the “Urinary Na/K (Test Compound)” value in assay [2] (3 mg/kg oral) came out at 3.49. In addition, the response vs control in vivo at 3 mg/kg came out at 97% in assay [2] (setting [7]), 123% in assay [2] (setting [8]) and 104% in assay [2] (setting [9]). Besides, the response vs control in vivo at 30 mg/kg came to 117% in assay [2] (setting [10]) and 121% in assay [2] (setting [11]). The IC50 in assay [3] came to 4.16 nM; in assay [5], 1430 nM. The “ΔBP 2 hours” value in assay [4] is listed as -48 ± 19 mm Hg. In addition, the “ΔHR 2 hours” value in assay [4] is listed as -36 ± 5 beats per minute. Moreover, in assay [4], the “antihypertensive effect (in words)” value is given as “good antihypertensive effect without significantly affecting heart rate”.

With `NS(=O)(=O)c1cc2c(cc1Cl)CN(CCCN1CCN(c3cccc(C(F)(F)F)c3)CC1)C2=O` [Example IX, 6-chloro-2,3-dihydro-3-oxo-2-[3-[4-[3-(trifluoromethyl)phenyl]-1-piperazinyl]propyl]-1H-isoindole-5-sulfonamide hydrochloride hemihydrate], the “Average Dose Shift” value is given as 6 ± 0.6 in assay [6] (setting [12]) and 2.2 in assay [6] (iv). Besides, the “in vivo α blocking activity (in words)” value in assay [6] (conclusion from Table III) is “weakly active”. In assay [6] (iv), this compound returned an ED50 of 11.3. Also, the “Urinary Na/K (Test Compound)” value in assay [2] (3 mg/kg oral) amounted to 2.99; in assay [2] (30 mg/kg oral), 3.67. In addition, the response vs control in vivo at 3 mg/kg amounted to 106% in assay [2] (setting [7]), 127% in assay [2] (setting [8]) and 102% in assay [2] (setting [9]). The results for the response vs control in vivo at 30 mg/kg in assay [2] (setting [10]), in assay [2] (setting [11]) and in assay [2] (setting [13]) were 140%, 212% and 184%, respectively. The IC50 in assay [3] is 108 nM; in assay [5], over 1000 nM. Moreover, in assay [4], the “ΔBP 2 hours” value is on record as -34 ± 14 mm Hg. For the same compound, the “ΔBP 4 hours” value in assay [4] is recorded as -32 ± 10 mm Hg. In assay [4], the “ΔHR 2 hours” value was 6 ± 17 beats per minute. In assay [4], the “ΔHR 4 hours” value is reported as 0 ± 14 beats per minute. In assay [4], the “antihypertensive effect (in words)” value is “good antihypertensive effect without significantly affecting heart rate”.

For `Cl.NS(=O)(=O)c1cc2c(cc1Cl)CN(CCCN1CCN(C(=O)c3ccccc3)CC1)C2=O.O` [Example VII, 1-[3-[5-(aminosulfonyl)-6-chloro-1,3-dihydro-3-oxo-2H-isoindol-2-yl]propyl]-4-benzoylpiperazine hydrochloride monohydrate], the “Average Dose Shift” value in assay [6] (setting [12]) is listed as over 1.0. In assay [6] (ED50 of PE after test drug, dose 10, intravenous), this compound returned an ED50 of 2.6. Moreover, the “Urinary Na/K (Test Compound)” value is 2.07 in assay [2] (3 mg/kg oral) and 3.27 in assay [2] (30 mg/kg oral). Further, the response vs control in vivo at 3 mg/kg turned out to be 113% in assay [2] (setting [7]), 92% in assay [2] (setting [8]) and 89% in assay [2] (setting [9]). In addition, the response vs control in vivo at 30 mg/kg in assay [2] (setting [10]) worked out at 111%; in assay [2] (setting [11]) it was 140%; in assay [2] (setting [13]), 112%. In addition, the IC50 in assay [3] is 152000 nM; in assay [5] it was over 1000 nM. Further, the “ΔBP 2 hours” value in assay [4] is -7 ± 8 mm Hg. Besides, the “ΔBP 4 hours” value in assay [4] was -14 ± 3 mm Hg. Also, in assay [4], the “ΔHR 2 hours” value is on record as -32 ± 14 beats per minute. The “ΔHR 4 hours” value in assay [4] is given as -74 ± 24 beats per minute.
